Marks after values point to notes of the source that are not given here.
Details: pH 2.3

Row | SMILES | Log P
1 | CCOC(=O)C(C#N)=C(NC(C)C(C)C)c1cccnc1-c1cccs1 (stereo not drawn) [Compound 1505] | 3.7^[c]; 3.7^[b]
2 | CCOC(=O)C(C#N)=C(NC(C)C(C)C)c1cccnc1-c1ccc(F)cc1 (stereo not drawn) [Compound 1541] | 3.7
3 | C=CCNC(=O)C(C#N)=C(NC(C)C(C)C)c1cccnc1Cl (stereo not drawn) [Compound 1458] | 3^[c]; 3^[b]
4 | CCOC(=O)C(C#N)=C(NC(C)C(C)C)c1cccnc1Br (stereo not drawn) [Compound 1545] | 3.27

Same assay, conditions: pH 2.7

Row | SMILES | Log P
5 | CCOC(=O)C(C#N)=C(NC1CCC1)c1ccncc1Cl [Compound 798] | 2.84^[a]
6 | COC(=O)C(C#N)=C(NC(C)(C)c1ccc(OC)cc1)c1cccnc1Cl [Compound 386] | 3.02^[a]
7 | COC(=O)C(C#N)=C(NC(C)c1cc(Cl)ccc1Cl)c1cccnc1Cl (stereo not drawn) [Compound 394] | 3.28^[a]
8 | CCOC(=O)C(C#N)=C(NC1CC2CCC1C2)c1cccnc1Cl (stereo not drawn) [Compound 1082] | 3.74^[a]
9 | CCOC(=O)C(C#N)=C(NC(C)COc1ccccc1)c1cccnc1Cl (stereo not drawn) [Compound 1161] | 3.58^[a]
10 | CCOC(=O)C(C#N)=C(NC(C)C(=O)CC)c1cn(C)nc1C(F)F (racemic) [Compound 1240] | 2.47^[a]
11 | C#CC1(NC(=C(C#N)C(=O)OC)c2cccnc2Cl)CCCCC1 [Compound 1088] | 2.99^[a]
12 | CCOC(=O)C(C#N)=C(NC(C)c1ccccn1)c1ccnc(Cl)c1Br (racemic) [Compound 1404] | 3.06^[a]
13 | CCOC(=O)C(C#N)=C(NC(C)C(C)C)c1ccncc1Cl (stereo not drawn) [Compound 978] | 3.29^[a]
14 | CCOC(=O)C(C#N)=C(NC(C)C(=O)NC)c1cccnc1C(F)(F)F (stereo not drawn) [Compound 706] | 2.05^[a]
15 | COC(=O)C(C#N)=C(NC(C)c1ccncc1)c1cccnc1Cl (stereo not drawn) [Compound 371] | 1.24^[a]
16 | CCNC(=O)C(C#N)=C(NC(C)c1ccncn1)c1cccnc1Cl (stereo not drawn) [Compound 1118] | 1.62^[a]
17 | CCOC(=O)C(C#N)=C(NC(C)c1nccs1)c1ccnc(SC)c1Cl (stereo not drawn) [Compound 1331] | 3.53^[a]
18 | C#CC(C)NC(=C(C#N)C(=O)OC)c1sc(C)nc1C(F)(F)F (stereo not drawn) [Compound 1048] | 2.73^[a]
19 | CCCCCCC(C)NC(=C(C#N)C(=O)OC)c1sc(C)nc1C(F)(F)F (racemic) [Compound 816] | 4.86^[a]
20 | CCOC(=O)C(C#N)=C(NC(C)COCc1ccccc1F)c1cccnc1Cl (stereo not drawn) [Compound 1163] | 3.69^[a]
21 | CC(C)C(C)NC(=C(C#N)C(=O)NC1CC1(C)C)c1cccnc1Cl (mixture of isomers) [Compound 1495] | 3.72^[a]
22 | COC(=O)C(C#N)=C(NC1(c2cccc(Cl)c2)CC1)c1cccnc1Cl [Compound 383] | 3.11^[a]
23 | COC(=O)C(C#N)=C(NC1CCCC(C(F)(F)F)C1)c1cccnc1Cl (stereo not drawn) [Compound 1069] | 3.09^[a]
24 | COC(=O)C(C#N)=C(NC(C)CN)c1cn(C)nc1C(F)F (racemic) [Compound 591] | 0.58^[a]
25 | CCOC(=O)C(C#N)=C(NC(C)c1nc(C)cs1)c1cccnc1Cl (stereo not drawn) [Compound 1536] | 2.88^[a]
26 | COC(=O)C(C#N)=C(NC(C)(C)CF)c1cccnc1Cl [Compound 744] | 2.31^[a]

Row | SMILES | Log P
27 | CCOC(=O)C(C#N)=C(Nc1ccccc1SC)c1cc(C)oc1C [Compound 414] | 3.84^[a]
28 | CCOC(=O)C(C#N)=C(Nc1cccc(SC)c1)c1cccnc1Cl [Compound 1266] | 3.42^[a]
29 | CCOC(=O)C(C#N)=C(NC(C)C(N)=O)c1conc1C (stereo not drawn) [Compound 596] | 1.41^[a]
30 | CCOC(=O)C(C#N)=C(Nc1ccccc1Cl)c1cn(C)nc1C(F)F [Compound 1216] | 3.15^[a]
31 | CCOC(=O)C(C#N)=C(NC(C)c1nc(C)c(C)s1)c1conc1C (stereo not drawn) [Compound 74] | 3.02^[a]
32 | CCOC(=O)C(C#N)=C(NC(C)C(N)=O)c1cc(Cl)ncc1Cl (stereo not drawn) [Compound 721] | 2.64^[a]
33 | CCOC(=O)C(C#N)=C(NC(C)c1cscn1)c1ccncc1F (mixture of isomers) [Compound 301] | 2.22^[a]
34 | CC(C)C(C)NC(=C(C#N)C(=O)NCc1ccccn1)c1cccnc1Cl (stereo not drawn) [Compound 1517] | 1.94^[a]
35 | COC(=O)C(C#N)=C(NC1(C(F)(F)F)CCCCC1)c1cccnc1Cl [Compound 1113] | 2.99^[a]
36 | COC(=O)C(C#N)=C(NC(C)C1CCCO1)c1cccnc1Cl (stereo not drawn) [Compound 126] | 2.17^[a]
37 | CCOC(=O)C(C#N)=C(NC1CC1(C)C)c1cn(C)nc1C(F)F (stereo not drawn) [Compound 1148] | 3^[a]
38 | COC(=O)C(C#N)=C(NC(C)CC1CC1)c1cccnc1Cl (stereo not drawn) [Compound 766] | 2.84^[a]
39 | CCOC(=O)C(C#N)=C(NC(C)C1(Cl)CC1)c1cccnc1Cl (stereo not drawn) [Compound 1182] | 3.33^[a]
40 | CCOC(=O)C(C#N)=C(NC(C)C(C)C)c1c(C(F)(F)F)nn(C)c1Cl (racemic) [Compound 1001] | 4.06^[a]
41 | CCOC(=O)C(C#N)=C(NC(C)C1(Cl)CC1)c1sc(C)nc1C(F)(F)F (stereo not drawn) [Compound 772] | 3.89^[a]
42 | CCOC(=O)C(C#N)=C(NC(Cc1ncccc1C)C(F)(F)F)c1cn(C)nc1C(F)F (stereo not drawn) [Compound 1223] | 2.94^[a]
43 | CCOC(=O)C(C#N)=C(NC(C)C(C)(C)C)c1ccsc1Br (racemic) [Compound 923] | 4.36^[a]
44 | CCOC(=O)C(C#N)=C(NC(C)C(=O)Nc1ccc2ccccc2c1)c1cn(C)nc1C(F)F (stereo not drawn) [Compound 683] | 3.31^[a]
45 | CCOC(=O)C(C#N)=C(NCc1ncc(C)s1)c1sccc1C(F)(F)F [Compound 217] | 3.19^[a]
46 | C#CC(C)NC(=C(C#N)C(=O)OC)c1cccnc1Cl (stereo not drawn) [Compound 1045] | 2.14^[a]
47 | CCOC(=O)C(C#N)=C(NC(C)C1CC1)c1cn(C)nc1C(F)(F)F (racemic) [Compound 894] | 3.29^[a]
48 | CCC(C)NC(=C(C#N)C(=O)OC)c1cccnc1Cl (stereo not drawn) [Compound 826] | 2.55^[a]

Now from value to molecule:

Row | Log P | SMILES
49 | 4.09^[a] | CCOC(=O)C(C#N)=C(Nc1ccccc1SC)c1ncc(Cl)cc1Cl [Compound 503]
50 | 3.04^[a] | CCOC(=O)C(C#N)=C(NCc1ccc(F)cn1)c1sccc1Br [Compound 200]
51 | 4.99^[a] | CCCCCC(C)N/C(=C(/C#N)C(=O)OCC)c1ccsc1Br (stereo not drawn) [Compound 862]
52 | 2.94^[a] | CCOC(=O)C(C#N)=C(NCc1nc(C)cs1)c1ccsc1Br [Compound 246]
53 | 3.73^[a] | CCOC(=O)C(C#N)=C(NC1(c2ccccc2)CCC1)c1cccnc1Cl [Compound 1550]
54 | 4.87^[a] | CCOC(=O)C(C#N)=C(NC(c1cc2ccccc2s1)C(F)(F)F)c1ccsc1Br (racemic) [Compound 130]
55 | 2.96^[a] | CCOC(=O)C(C#N)=C(NC(C)C(=O)OC)c1sccc1Br (stereo not drawn) [Compound 649]
56 | 4.96^[a] | CCOC(=O)C(C#N)=C(NC(C)c1ccc(Cl)cc1)c1cc(Cl)sc1Cl (racemic) [Compound 499]
57 | 3.35^[a] | CCOC(=O)C(C#N)=C(NC(CC)CC)c1cccnc1Cl [Compound 1371]
58 | 2.35^[a] | CCOC(=O)C(C#N)=C(NC(C)c1cn2ccsc2n1)c1cccnc1Cl (stereo not drawn) [Compound 1529]
59 | 2.82^[a] | CCOC(=O)C(C#N)=C(NCc1nccs1)c1sccc1C(F)(F)F [Compound 95]
60 | 4.08^[a] | CCOC(=O)C(C#N)=C(Nc1ccc(C(C)C)cc1)c1cccnc1Cl [Compound 1154]
61 | 2.96^[a] | CCOC(=O)C(C#N)=C(NC(C)c1nccs1)c1ccnc(Cl)c1F (stereo not drawn) [Compound 1313]
62 | 1.37^[a] | CCOC(=O)C(C#N)=C(NC(C)C(N)=O)c1ccncc1F (stereo not drawn) [Compound 733]
63 | 3.8^[a] | CCOC(=O)C(C#N)=C(Nc1ccccc1SC)c1sc(C)nc1C(F)(F)F [Compound 432]
64 | 2.59^[a] | CCOC(=O)C(C#N)=C(NC(C)c1nccs1)c1scnc1Cl (stereo not drawn) [Compound 1463]
65 | 2.5^[a] | CCOC(=O)C(C#N)=C(NC(C)c1ccccn1)c1ccnc2ccccc12 (racemic) [Compound 1497]
66 | 5.03^[a] | CCOC(=O)C(C#N)=C(NC(C)C1CCCCC1)c1ccsc1Br (stereo not drawn) [Compound 877]
67 | 2.63^[a] | CCOC(=O)/C(C#N)=C(\NCc1nccs1)c1sccc1Cl [Compound 153]
68 | 4.04^[a] | CCOC(=O)C(C#N)=C(NC(C)C1(Cl)CC1)c1sccc1C(F)(F)F (stereo not drawn) [Compound 769]
69 | 3.27^[a] | CCCc1nccc(C(NC(C)c2nccs2)=C(C#N)C(=O)OCC)c1Cl (stereo not drawn) [Compound 1382]
70 | 2.63^[a] | COC(=O)C(C#N)=C(NCc1ncc(C)s1)c1sc(C)nc1C(F)(F)F [Compound 183]
71 | 2.28^[a] | CCOC(=O)C(C#N)=C(NC(C)c1ccccn1)c1c(C)nn(C)c1F (racemic) [Compound 50]
72 | 1.57^[a] | CCOC(=O)C(C#N)=C(NC(C)Cc1cccnc1)c1cccnc1Cl (mixture of isomers) [Compound 296]
73 | 4.4^[a] | CCOC(=O)C(C#N)=C(NC(C)c1c(C)sc2c1CCCC2)c1cccnc1Cl (racemic) [Compound 280]
74 | 4.44^[a] | CCOC(=O)C(C#N)=C(NC(C)C(C)C)c1ccnc(SC)c1Cl (stereo not drawn) [Compound 1401]
75 | 2.78^[a] | CCOC(=O)C(C#N)=C(NC(C)c1nccs1)c1cnccc1Cl (racemic) [Compound 258]
76 | 3.55^[a] | CCOC(=O)C(C#N)=C(NC(C)C1CCCO1)c1sccc1C(F)(F)F (mixture of isomers) [Compound 172]

Same assay, conditions: pH 7.5

Row | SMILES | Log P
77 | CCCCCC(C)NC(=C(C#N)C(=O)OCC)c1cccnc1Cl (racemic) [Compound 859] | 4.1
78 | CCOC(=O)C(C#N)=C(NC(C)c1nccs1)c1cccnc1Br (racemic) [Compound 1547] | 2.44
79 | CCOC(=O)C(C#N)=C(NC(C)C(C)C)c1cccnc1-c1cccs1 (stereo not drawn) [Compound 1505] | 3.7^[c]; 3.7^[b]
80 | C=CCOC(=O)C(C#N)=C(NC(C)C1CC1)c1cccnc1Cl (mixture of isomers) [Compound 906] | 3.08
81 | CNC(=O)C(C#N)=C(NC(C)c1nccs1)c1ccc(Cl)nc1Cl (stereo not drawn) [Compound 1460] | 2.29
82 | CCOC(=O)C(C#N)=C(NC(C)c1ccccn1)c1ccc(C)nc1Cl (stereo not drawn) [Compound 1380] | 2.67
83 | COC(=O)C(C#N)=C(NC(C)C(C)(C)C)c1cccnc1Cl (mixture of isomers) [Compound 916] | 3.14
84 | C=CCNC(=O)C(C#N)=C(NC(C)C(C)C)c1cccnc1Cl (stereo not drawn) [Compound 1458] | 3^[c]; 3^[b]

— patent US8476197B2, “Aminopropenoates as fungicides” (priority 2009, dated 2013)
